Data as given in US9463254B2, “Molecular design toward dual-modality probes for radioisotope-based imaging (PET or SPECT) and MRI” (Board of Regents, The University of Texas System, priority 2013, dated 2016).

Assays:
[1] = et al., cited from earlier work; for thermodynamic stability logK: Caravan, 1999
[2] = MRI imaging and relaxivity measurements at 7.0 T; type: physicochemical
Procedure: The T1-weighted MR images of samples in 0.5 mL microfuge tubes were collected using Agilent®/Varian™ 7.0 T ([…], 5 cm diameter volume coil) VNMRj's spin-echo sequence (SEMS) sequence. For imaging, the following parameters were used: TR=200 ms; effective echo time (TE)=11.5 ms; FOV 45×45 mm^2, data matrix=256×256, averaging=2, slice=1 mm, steady-state scans=5, single slice. The T1-maps of the samples at […] was determined from a series of multi-TR (0.005 s to 10 s) saturation-recovery spin-echo sequence (SEMS with minimum TE (11.5 ms); FOV 45×45 mm^2; matrix=128×128; averaging=5, steady state scans=5), fitted and calculated using the ImageJ software. All the fits for T1 values used to calculate the longitudinal relaxivity, r1, had fitting coefficients, R^2≧0.99. Three trials were performed. […] Such changes are well known that T1 relaxivity typically decreases with increasing field strength (Caravan, et al., 1999).

[3] = 20 MHz, 39° C.; cited from earlier work
[4] = Relaxivity measurements (T1 relaxivity, Maran Ultra relaxometer); type: physicochemical; conditions: 20 MHz, 25° C., Millipore water
Procedure: The T1 values were recorded at […], 25° C. by using a Maran Ultra relaxometer (Oxford Instruments, UK). Longitudinal relaxation times were measured by using the inversion-recovery pulse sequence (180°-t-90°). The T1 relaxivities were determined by the linear regression analysis of the water proton relaxation rates in solutions ranging in concentration from 0.005 to 12 mM, in Millipore water in triplicate. At 20 MHz, 25° C., the relaxivity of Gd^3+-L was calculated to be 103.5±15 mM^−1 s^−1. Thus, each Gd in the complex accounts for relaxivity of 17.25 mM^−1 s^−1, while under the same conditions, the relaxivity of Gd(DOTA) complex is 3.5 mM^−1 s^−1. The relaxivity value of Gd^3+-L is approximately 400% higher than that of Gd(DOTA). This may be attributed to its higher molecular weight (larger size) and consequently longer rotational correlation time (tR). At ambient conditions (37° C.), the relaxivity value of Gd^3+-L remains unchanged. The measurement of the relaxivity value of Gd^3+-L in rat serum at 25° C. gives an enhanced relaxivity value of 145.5±9.2 mM^−1 s^−1.

Compound: O=C([O-])CN1CCN(CC(=O)[O-])CCN(CC(=O)[O-])CC1.[Ga+3] [Ga-NOTA]
- thermodynamic stability logK [1]: 31.0

Compound: O=C([O-])CN(CCN(CC(=O)[O-])CC(=O)O)CCN(CC(=O)[O-])CC(=O)O.[Gd+3] [Gd-DTPA]
- Log K compared with that of Gd-NOTA complex ([1]; Reichert, 1996): about eight orders of magnitude higher

Compound: O=C([O-])CN1CCN(CC(=O)[O-])CCN(CC(=O)[O-])CC1.[Gd+3] [Gd-NOTA]
- thermodynamic stability logK [1]: 14.3

Compound: CNC[C@H](O)[C@@H](O)[C@H](O)[C@H](O)CO.CNC[C@H](O)[C@@H](O)[C@H](O)[C@H](O)CO.O=C([O-])CN(CCN(CC(=O)[O-])CC(=O)O)CCN(CC(=O)[O-])CC(=O)O.[Gd+3] [magnevist]
- r1 (longitudinal relaxivity) of the comparator [2]: 4.1 mM^−1 S^1

Compound: Gadomer-17
- ionic relaxivity [3]: 17.3 mM⁻¹ s⁻¹

Compound: gadolinium-1,4,7,10-tetrakis(carboxymethyl) cyclododecane [Gd(DOTA)]
- relaxivity [4]: 3.5 mM⁻¹ s⁻¹
- thermodynamic stability logK [1]: 24.7
